Test system: SARS-CoV-2
Assay: microbe, parasite or virus in culture
Settings: Severe acute respiratory syndrome coronavirus 2, Vero C1008, 48 h

| SMILES | IC50 | IC50 (read-out: pIC50 (converted)) |
| --- | --- | --- |
| Cc1c(NC(=O)OC[C@@H]2COCCN2)cn2ncnc(Nc3ccc4c(cnn4Cc4cccc(F)c4)c3)c12 [AC-480] | > 20 µM | > 20 µM |
| C[N+](C)(CCOc1ccccc1)Cc1ccccc1 [BEPHENIUM] | > 20 µM | > 20 µM |
| CCO[C@H](COc1ccc(C(F)(F)F)cc1)CSc1ccc(OCC(=O)O)c(C)c1 | > 20 µM | > 20 µM |
| COc1ccc(/C=C\c2cc(OC)c(OC)c(OC)c2)cc1O [COMBRETASTATIN A4] | > 20 µM | > 20 µM |
| Cc1ccc2c([nH]c(=O)c3c(=O)cc(C(=O)OCCC(C)C)oc32)c1C | > 20 µM | > 20 µM |
| C[C@@H]1CC[C@H]2[C@@H](C)C(=O)O[C@@H]3O[C@@]4(C)CC[C@@H]1[C@]32OO4 [ARTEMISININ] | > 20 µM | > 20 µM |
| CN1C2=CC(=O)/C(=N\NC(N)=O)C=C2CC1S(=O)(=O)O (stereo not drawn) [CARBAZOCHROME SULFONIC ACID] | > 20 µM | > 20 µM |
| CC1CC[C@@]2(OC1)OC1CC3C4CC[C@H]5CC(O)CCC5(C)C4CC(=O)C3(C)C1C2C (stereo partly drawn) | > 20 µM | > 20 µM |
| CC/C(=C(\c1ccccc1)c1ccc(OCCN(C)C)cc1)c1ccccc1 [TAMOXIFEN] | > 20 µM | > 20 µM |
| CC(C)(O)CC(=O)O [.BETA.-HYDROXYISOVALERIC ACID] | > 20 µM | > 20 µM |
| CCCCC[C@H](O)/C=C/[C@@H]1[C@H]2C/C(=C/CCCC(=O)O)O[C@H]2C[C@H]1O [EPOPROSTENOL] | > 20 µM | > 20 µM |
| C[C@@H]1CN(Cc2ccc(F)cc2)[C@@H](C)CN1C(=O)c1cc2c(C(=O)C(=O)N(C)C)cn(C)c2cc1Cl [TALMAPIMOD] | > 20 µM | > 20 µM |
| CC(C)N1CCN(c2ccc(N3CCN(c4ccc(OC[C@@H]5OC[C@@](Cn6cncn6)(c6ccc(F)cc6F)O5)cc4)CC3)cc2)C1=O | > 20 µM | > 20 µM |
| CC(C)(C)CC(=O)OCC(=O)[C@@]12OC(C)(C)O[C@@H]1C[C@H]1[C@@H]3CCC4=CC(=O)C=C[C@]4(C)[C@@]3(F)[C@@H](O)C[C@@]12C [TRIAMCINOLONE HEXACETONIDE] | > 20 µM | > 20 µM |
| CN(C)[C@@H](c1cccc(O)c1)[C@H]1CCCC[C@H]1O [CIRAMADOL] | > 20 µM | > 20 µM |
| C=C[C@](C)(O)CC[C@H]1C(=C)C[C@H](O)[C@H]2C(C)(C)CCC[C@]12C | > 20 µM | > 20 µM |
| CCCCC(=O)O[C@]1(C(=O)CO)C(C)CC2C3CCC4=CC(=O)C=CC4(C)[C@@]3(F)C(O)CC21C (stereo partly drawn) | > 20 µM | > 20 µM |
| CC(C)(CO)CCCCCCC(C)(C)CO [GEMCADIOL] | > 20 µM | > 20 µM |
| C[C@@H](N)[C@@H](O)c1ccccc1 [(1S,2R)-PHENYLPROPANOLAMINE] | > 20 µM | > 20 µM |
| Nc1ncnc2c1ncn2[C@@H]1O[C@H](COP(=O)(O)O)[C@@H](O)[C@H]1O [ADENOSINE PHOSPHATE] | > 20 µM | > 20 µM |
| CN(C)CCCOC1(Cc2ccccc2)CCCCCC1 [BENCYCLANE] | > 20 µM | > 20 µM |
| COc1ccc(CC2c3cc(OC)c(OC)cc3CCN2C)cc1OC (stereo not drawn) [LAUDANOSINE] | > 20 µM | > 20 µM |

| SMILES | IC50 | IC50 (read-out: pIC50 (converted)) |
| --- | --- | --- |
| CC1=N[C@H](C(=O)O)[C@@H](O)CN1 | > 20 µM | > 20 µM |
| CN1[C@@H]2CC[C@H]1C[C@@H](OC(=O)c1cc(Cl)cc(Cl)c1)C2 [BEMESETRON] | > 20 µM | > 20 µM |
| COc1cc2nccc(Oc3ccc(NC(=O)Nc4cc(C)on4)c(Cl)c3)c2cc1OC [TIVOZANIB] | > 20 µM | > 20 µM |
| CONC(=O)c1ccccc1Nc1cc(Nc2cc(C)nn2C(C)C)ncc1Cl [GSK-2256098] | > 20 µM | > 20 µM |
| CN(C)[C@@H]1[C@@H]2C=CC[C@H]1c1ccccc1C2 | > 20 µM | > 20 µM |
| O=C(O)CC(=O)C(=O)O [OXALOACETATE] | > 20 µM | > 20 µM |
| CCCC(=O)c1cc(F)ccc1OCC(O)CNC(C)(C)C (stereo not drawn) [BUTOFILOLOL] | > 20 µM | > 20 µM |
| C[C@@H]1NC(=O)C2(CCCC2)NC1=O | > 20 µM | > 20 µM |
| CN1CCN(C(c2ccccc2)c2ccccc2)CC1 [CYCLIZINE] | > 20 µM | > 20 µM |
| Nc1[nH]ncc1-c1cc(Cl)ccc1Oc1cc(F)c(S(=O)(=O)Nc2cscn2)cc1Cl [PF-05089771] | > 20 µM | > 20 µM |
| NC(=O)NNc1ccccc1 [PHENICARBAZIDE] | > 20 µM | > 20 µM |
| c1ccc2c(SC3=NCCN3)c[nH]c2c1 [TINAZOLINE] | > 20 µM | > 20 µM |
| O=c1[nH]cnc2nc[nH]c12 [HYPOXANTHINE] | > 20 µM | > 20 µM |
| c1ccc(C(CC2=NCCN2)c2ccccn2)cc1 (stereo not drawn) [MIDAGLIZOLE] | > 20 µM | > 20 µM |
| CCOC(=O)N1c2ccc(C(F)(F)F)cc2[C@@H](N(Cc2cc(C(F)(F)F)cc(C(F)(F)F)c2)C(=O)OC)C[C@H]1CC [TORCETRAPIB] | > 20 µM | > 20 µM |
| CCN(CC)CCNC(=O)c1cc(Cl)c(N)cc1OC [METOCLOPRAMIDE] | > 20 µM | > 20 µM |
| Cn1c(-c2ccc3c(c2)OCO3)cc(=O)c2ccccc21 [GRAVEOLINE] | > 20 µM | > 20 µM |
| CCCCC(C)(O)C/C=C/C1C(O)CC(=O)C1CC/C=C/CCC(=O)OC (stereo not drawn) | > 20 µM | > 20 µM |
| CCc1nn(CCO)c(CC)c1Oc1cc(C#N)cc(C#N)c1 [LERSIVIRINE] | > 20 µM | > 20 µM |
| O=C1c2ccccc2-c2c1c1ccccc1c(=O)n2CCNCCO | > 20 µM | > 20 µM |
| N#CCC1(n2cc(-c3ncnc4[nH]ccc34)cn2)CN(C2CCN(C(=O)c3ccnc(C(F)(F)F)c3F)CC2)C1 [ITACITINIB] | > 20 µM | > 20 µM |
| O=C(Oc1ccc2c(c1)CCCN2C(=O)C(Cl)Cl)c1ccco1 [QUINFAMIDE] | > 20 µM | > 20 µM |

| SMILES | IC50 | IC50 (read-out: pIC50 (converted)) |
| --- | --- | --- |
| O=C(O)CCC(=O)O [SUCCINIC ACID] | > 20 µM | > 20 µM |
| CC12CCC(C(=O)N(CCCCN3CCN(c4ccccn4)CC3)C1=O)C2(C)C (stereo not drawn) | > 20 µM | > 20 µM |
| C[C@H](N[C@@H](CCc1ccccc1)C(=O)O)C(=O)N1CCC[C@H]1C(=O)O [ENALAPRILAT ANHYDROUS] | > 20 µM | > 20 µM |
| Cc1ccc(C(=O)c2cc(O)c(O)c([N+](=O)[O-])c2)cc1 [TOLCAPONE] | > 20 µM | > 20 µM |
| Cc1cc(Nc2ccc(S(F)(F)(F)(F)F)cc2)n2nc(C(C)(F)F)nc2n1 [DSM-265] | > 20 µM | > 20 µM |
| C[C@H]1CCC[C@H](O)CCCCCc2cc(O)cc(O)c2C(=O)O1 [ZERANOL] | > 20 µM | > 20 µM |
| CNC(=O)c1cc(COc2nnc(Nc3ccc(Cl)cc3)c3ccoc23)ccn1 [TELATINIB] | > 20 µM | > 20 µM |
| CCN(CC)CCOc1ccc(Cc2ccccc2)cc1 | > 20 µM | > 20 µM |
| CCCC(CCC)C(=O)O[C@H]1C[C@H]2CC[C@@H](C1)[N+]2(C)C [ANISOTROPINE] | > 20 µM | > 20 µM |
| Oc1ncnc2[nH]ncc12 [ALLOPURINOL] | > 20 µM | > 20 µM |
| CC(=O)OC1CCC2C3CCc4cc(O)ccc4C3CCC12C (stereo not drawn) | > 20 µM | > 20 µM |
| Cc1nc2cccc(N)c2c(=O)n1C1CCC(=O)NC1=O (stereo not drawn) [AVADOMIDE] | > 20 µM | > 20 µM |
| CO/N=C(\C#N)[C@@H]1CN2CCC1CC2 | > 20 µM | > 20 µM |
| Cc1oncc1C(=O)Nc1ccc(C(F)(F)F)cc1 [LEFLUNOMIDE] | > 20 µM | > 20 µM |
| CCCCCC(=O)CCC1(C)C2Cc3ccc(O)cc3C1(C)CCN2C (stereo not drawn) | > 20 µM | > 20 µM |
| c1ccc([C@@H]2CN3CCSC3=N2)cc1 [DEXAMISOLE] | > 20 µM | > 20 µM |
| Nc1nc(Cl)nc2c1ncn2[C@@H]1O[C@H](CO)[C@@H](O)[C@@H]1F [CLOFARABINE] | > 20 µM | > 20 µM |
| O=c1c(O)c(-c2ccccc2)oc2ccccc12 [FLAVONOL] | > 20 µM | > 20 µM |
| Cn1nnc2c(C(N)=O)ncn2c1=O [TEMOZOLOMIDE] | > 20 µM | > 20 µM |
| OC[C@H]1NC[C@@H](O)[C@@H](O)[C@@H]1O [DEOXYMANNOJIRIMYCIN] | > 20 µM | > 20 µM |
